# From patent publication US20230083973A1, “SUBSTITUTED CYCLOPROPYL-2,2'-BIP[…], ANALOGUES THEREOF, AND METHODS USING SAME” (priority 2019, published 2023)
# Tested on: HBsAg
# Assay: HBsAg assay: inhibition of HBsAg in HepG2.2.15 cells (chemiluminescence immunoassay of supernatant)
# Format: cell-based, hepatitis B virus
# Conditions: Hepatitis B virus, HepG2.2.15, 144 h, read-out: sAg EC50, HepG2.2.15 cells; HBsAg in supernatant at day 6 after exposure to compound; 0.5% DMSO
# Description: Inhibition of HBsAg was determined in HepG2.2.15 cells. Cells were maintained in culture medium containing 10% fetal calf serum, […], Glutamine, penicillin/streptomycin. Cells were seeded in 96-well collagen-coated plate at a density of 30,000 cells/well. Serially diluted compounds were added to cells next day at the final DMSO concentration of 0.5%. Cells were incubated with compounds for 2-3 days, after which medium was removed. Fresh medium containing compounds was added to cells for additional 3-4 days. At day 6 after exposure of compounds, supernatant was collected, the HBsAg immunoassay (microplate-based chemiluminescence immunoassay kits, CLIA, Autobio Diagnosics Co., Zhengzhou, China, Catalog # CL0310-2) was used to determine the level of HBsAg according to manufactory instruction. Dose-response curves were generated and the EC50 value (effective concentrations that achieved 50% inhibitory effect) were determined using XLfit software. In addition, cells were seeded at a density of 5,000 cells/well for determination of cell viability in the presence and absence of compounds by using CellTiter-Glo reagent (Promega).
# Table 1 illustrates EC50 values obtained by the HBsAg assay for selected compounds.
row,Compound,EC50 [nM]
1,"COc1cc([C@@H]2C[C@H]2c2cnc(-c3ncccn3)nc2)ccc1C(F)(F)F (relative stereo) [Example 153, trans-5-(2-(3-Methoxy-4-(trifluoromethyl)phenyl)cyclopropyl)-2,2′-bipyrimidine]",190
2,"COc1cc([C@@H]2C[C@H]2c2cnc(-c3ccncn3)nc2)cc(F)c1F (relative stereo) [Example 177, trans-5-(2-(3,4-Difluoro-5-methoxyphenyl)cyclopropyl)-2,4′-bipyrimidine]",360
3,"COCCCn1cc2c([C@@H]3C[C@H]3c3cnc(-c4ncccn4)nc3)ccc(F)c2n1 (relative stereo) [Example 277, trans-4-(2-([2,2′-Bipyrimidin]-5-yl)cyclopropyl)-7-fluoro-2-(3-methoxypropyl)-2H-indazole]",30
4,"Cc1nc2c(F)cc([C@@H]3C[C@H]3c3cnc(-c4ncccn4)nc3)cc2n1C(C)C (relative stereo) [Example 271, trans-6-(2-([2,2′-Bipyrimidin]-5-yl)cyclopropyl)-4-fluoro-1-isopropyl-2-methyl-1H-benzo[d]imidazole]",250
5,"Cc1nc2cc([C@@H]3C[C@H]3c3cnc(-c4ncccn4)nc3)ccc2s1 (relative stereo) [Example 278, trans-5-(2-([2,2′-Bipyrimidin]-5-yl)cyclopropyl)-2-methylbenzo[d]thiazole]",56
6,"Fc1cc([C@@H]2C[C@H]2c2cnc(-c3ncccn3)nc2)cc(F)c1OC1CC2(COC2)C1 (relative stereo) [Example 242, trans-5-(2-(4-((2-Oxaspiro[3.3]heptan-6-yl)oxy)-3,5-difluorophenyl)cyclopropyl)-2,2′-bipyrimidine]",390
7,"c1cnc(-c2ncc([C@@H]3C[C@H]3c3cccc4ccccc34)cn2)nc1 (relative stereo) [Example 166, trans-5-(2-(Naphthalen-1-yl)cyclopropyl)-2,2′-bipyrimidine]",65
8,"CCOC(=O)C1C(c2cnc(-c3ncccn3)nc2)C1c1cc(F)c(F)c(OC)c1 (stereo not drawn) [Example 263, trans-Ethyl 2-([2,2′-bipyrimidin]-5-yl)-3-(3,4-difluoro-5-methoxyphenyl)cyclopropane-1-carboxylate]",12000
9,"Fc1cc(C2CC2c2cnc(-c3ncccn3)nc2)cc(N2CCCC2)c1F (single isomer, unassigned) [Example 92, trans-5-(2-(3,4-Difluoro-5-(pyrrolidin-1-yl)phenyl)cyclopropyl)-2,2′-bipyrimidine]",24

# Same assay, conditions: read-out: sAg EC50; HepG2.2.15 cells; HBsAg in supernatant at day 6 after exposure to compound; 0.5% DMSO
row,Compound,EC50 [nM]
1,"CCCc1cc(F)c(OC)cc1C1CC1c1cnc(-c2ncccn2)nc1 (single isomer, unassigned) [Example 37, trans-5-(2-(4-Fluoro-5-methoxy-2-propylphenyl)cyclopropyl)-2,2′-bipyrimidine]",2000
2,"Cc1cn(-c2cc(C3CC3c3cnc(-c4ncccn4)nc3)cc(F)c2F)cn1 (single isomer, unassigned) [Example 262, trans-5-(2-(3,4-Difluoro-5-(4-methyl-1H-imidazol-1-yl)phenyl)cyclopropyl)-2,2′-bipyrimidine]",47
3,"COCCOc1cc(C2CC2c2cnc(-c3ncccn3)nc2)ccc1F (single isomer, unassigned) [Example 21, trans-5-(2-(4-Fluoro-3-(2-methoxyethoxy)phenyl)cyclopropyl)-2,2′-bipyrimidine]",490
4,"COc1cc(C2CC2c2ccc(-c3ncccn3)nc2)cc(F)c1F (single isomer, unassigned) [Example 124, trans-2-(5-(2-(3,4-Difluoro-5-methoxyphenyl)cyclopropyl)pyridin-2-yl)pyrimidine]",290
5,"COc1ccc(C2CC2c2cnc(-c3ncccn3)nc2)cc1F (single isomer, unassigned) [Example 13, trans-5-(2-(3-Fluoro-4-methoxyphenyl)cyclopropyl)-2,2′-bipyrimidine]",82
6,"Fc1cc(C2CC2c2cnc(-c3ncccn3)nc2)cc(N2CC(c3ccccc3)C2)c1F (single isomer, unassigned) [Example 255, trans-5-(2-(3,4-Difluoro-5-(3-phenylazetidin-1-yl)phenyl)cyclopropyl)-2,2′-bipyrimidine]",780
7,"O[C@H]1CCN(c2cc(C3CC3c3cnc(-c4ncccn4)nc3)ccc2F)C1 (single isomer, unassigned) [Example 65]",580
8,"CN1CC[C@H](Nc2cc(C3CC3c3cnc(-c4ncccn4)nc3)cc(F)c2F)C1 (single isomer, unassigned) [Example 228]",15000
9,"Fc1ccc(C2CC2c2cnc(-c3ncccn3)nc2)cc1N1CCC(F)(F)C1 (single isomer, unassigned) [Example 43, trans-5-(2-(3-(3,3-Difluoropyrrolidin-1-yl)-4-fluorophenyl)cyclopropyl)-2,2′-bipyrimidine]",250
10,"Fc1cc(C2CC2c2cnc(-c3ncccn3)nc2)cc(OCC2CC2)c1F (single isomer, unassigned) [Example 129, trans-5-(2-(3-(Cyclopropylmethoxy)-4,5-difluorophenyl)cyclopropyl)-2,2′-bipyrimidine]",18
11,"COc1c(Cl)ccc(C2CC2c2cnc(-c3ncccn3)nc2)c1OC (single isomer, unassigned) [Example 115, trans-5-(2-(4-Chloro-2,3-dimethoxyphenyl)cyclopropyl)-2,2′-bipyrimidine]",320
12,"Fc1c(Cl)cc(C2CC2c2cnc(-c3ncccn3)nc2)cc1N1CCCC1 (single isomer, unassigned) [Example 108, trans-5-(2-(3-Chloro-4-fluoro-5-(pyrrolidin-1-yl)phenyl)cyclopropyl)-2,2′-bipyrimidine]",78
13,"Fc1cc(C2CC2c2cnc(-c3ncccn3)nc2)cc(N2CCCC2)c1F (single isomer, unassigned) [Example 93, trans-5-(2-(3,4-Difluoro-5-(pyrrolidin-1-yl)phenyl)cyclopropyl)-2,2′-bipyrimidine]",19
14,"COc1c(F)ccc(C2CC2c2cnc(-c3ncccn3)nc2)c1F (single isomer, unassigned) [Example 190, trans-5-(2-(2,4-Difluoro-3-methoxyphenyl)cyclopropyl)-2,2′-bipyrimidine]",1300
15,"O[C@@H]1CCN(c2cc(C3CC3c3cnc(-c4ncccn4)nc3)cc(Cl)c2F)C1 (single isomer, unassigned) [Example 127]",110
16,"CC1(C)CN(c2cc(C3CC3c3cnc(-c4ncccn4)nc3)cc(F)c2F)C1 (single isomer, unassigned) [Example 138, trans-5-(2-(3-(3,3-Dimethylazetidin-1-yl)-4,5-difluorophenyl)cyclopropyl)-2,2′-bipyrimidine]",1000
17,"Fc1ccc(C2CC2c2cnc(-c3ncccn3)nc2)cc1N1CCCC1 (single isomer, unassigned) [Example 20, trans-5-(2-(4-Fluoro-3-(pyrrolidin-1-yl)phenyl)cyclopropyl)-2,2′-bipyrimidine]",23
18,"Fc1cc(C2CC2c2cnc(-c3ncccn3)nc2)cc(N2CCC3(COC3)C2)c1F (single isomer, unassigned) [Example 222, trans-6-(5-(2-([2,2′-Bipyrimidin]-5-yl)cyclopropyl)-2,3-difluorophenyl)-2-oxa-6-azaspiro[3.4]octane]",190
19,"Clc1ccc(C2CC2c2cnc(-c3ncccn3)nc2)cc1N1CCCC1 (single isomer, unassigned) [Example 200, trans-5-(2-(4-Chloro-3-(pyrrolidin-1-yl)phenyl)cyclopropyl)-2,2′-bipyrimidine]",57
20,"Fc1cc(Cl)cc(C2CC2c2cnc(-c3ncccn3)nc2)c1 (single isomer, unassigned) [Example 119, trans-5-(2-(3-Chloro-5-fluorophenyl)cyclopropyl)-2,2′-bipyrimidine]",330
21,"COc1cc(C2CC2c2cnc(-c3ncccn3)nc2)cc(N2CCCC2)c1F (single isomer, unassigned) [Example 101, trans-5-(2-(4-Fluoro-3-methoxy-5-(pyrrolidin-1-yl)phenyl)cyclopropyl)-2,2′-bipyrimidine]",800
22,"COc1cc(C2CC2c2cnc(-c3ncccn3)c3ccccc23)ccc1F (single isomer, unassigned) [Example 194, trans-4-(2-(4-Fluoro-3-methoxyphenyl)cyclopropyl)-1-(pyrimidin-2-yl)isoquinoline]",49000
23,"COc1cc(C2CC2c2ccc(-c3ncccn3)nc2)cc(F)c1F (single isomer, unassigned) [Example 125, trans-2-(5-(2-(3,4-Difluoro-5-methoxyphenyl)cyclopropyl)pyridin-2-yl)pyrimidine]",4
24,"COc1cc(C2CC2c2cnc(-c3ncccn3)nc2)c(-c2ccccc2)cc1Cl (single isomer, unassigned) [Example 159, trans-5-(2-(5-Chloro-4-methoxy-[1,1′-biphenyl]-2-yl)cyclopropyl)-2,2′-bipyrimidine]",49000
25,"Cc1c(C2CC2c2cnc(-c3ncccn3)nc2)ccc(Cl)c1OCC1CC1 (single isomer, unassigned) [Example 61, trans-5-(2-(4-Chloro-3-(cyclopropylmethoxy)-2-methylphenyl)cyclopropyl)-2,2′-bipyrimidine]",430
